The subject of experiment [1] is COLO-357 cells. As to the kind of experiment: Matrigel transwell invasion assay, COLO-357. The format is cell-based, human. Particulars: COLO-357 transfected with miR-10b precursor, erlotinib 2 μM; for miR-10b's effects on combined EGF-TGF-β1 actions on invasion: 1 nM EGF + 0.5 nM TGF-β1, 20 h, SB505124 10 μM. As for the experimental part:
(§1) Invasion and Migration Assays. miR-10b precursor and precursor control transfected cells (5×104) were plated in Matrigel pre-coated transwell chambers (BD Biosciences, San Jose, Calif.) and assays performed as previously reported. UO126 (1 μM) were from Alexis Biochemicals (San Diego, Calif.). Erlotinib (2 μM; Genentech, Inc., South San Francisco, Calif.), and LY294002 (10 μM; Calbiochem, San Diego, Calif.), were added to SF in the lower chamber, in the absence or presence of 1 nM EGF and/or 0.5 nM TGF-β1. Wound healing assays were performed as previously reported. Briefly, 24 hours after cell transfection with pre-miR-10b oligonucleotides, cells were serum starved overnight, and the monolayer was scratched with a 200 μL pipette tip generating two parallel wounds. Cells were then rinsed twice with HBSS and incubated for 24 h in SF media in the absence or presence of 1 nM EGF, 0.5 nM TGF-β1, or their combination, and migration was calculated as the percent change in the wound area.

For experiment [2], the system named is PANC-1 cells. Put plainly: Matrigel transwell invasion assay, PANC-1. The format is cell-based, human. Particulars: PANC-1 transfected with miR-10b precursor, erlotinib 2 μM; for miR-10b's effects on combined EGF-TGF-β1 actions on invasion: 1 nM EGF + 0.5 nM TGF-β1, 20 h, SB505124 10 μM. As for the experimental part:
as §1

Setting [3] is: 1 nM EGF, 20 h, LY294002 10 μM, UO126 1 μM.

As to `C#Cc1cccc(Nc2ncnc3cc(OCCOC)c(OCCOC)cc23)c1` [erlotinib], the “miR-10b's effects on combined EGF-TGF-β1 actions on invasion” value in experiment [1] and in experiment [2] was “markedly attenuated” in each case. The “EGF-induced invasion in the presence of miR-10b” value in experiment [1] (setting [3]) and in experiment [2] (setting [3]) was “completely blocked” in each case.
With `Cc1cccc(-c2[nH]c(C(C)(C)C)nc2-c2ccc3c(c2)OCO3)n1` [SB505124], the “miR-10b's effects on combined EGF-TGF-β1 actions on invasion” value in experiment [1] and in experiment [2] was “markedly attenuated” throughout.

The record behind these values is patent publication US20150141342A1, “BLOOD BORNE miRNA SIGNATURE FOR THE ACCURATE DIAGNOSIS OF PANCREATIC DUCTAL ADENOCARCINOMA” (Indiana University Research and Technology Corp., priority 2013, published 2015).
